Assay results as given in ChEMBL document CHEMBL5724914, “Linking interpersonal differences in gut microbiota composition and drug biotransformation activity” (2024).

Tests used:
[1] = (§1) The drug is tested on Z-003 corresponding to pig gut metagenome with ENA study accession number: PRJEB37062 and ENA sample accession number: ERS12561803 for biotransformation under anaerobic condition. The drug concentrations were measured over 9 timepoints collected between 0 and 24 hours of incubation by liquid-chromatography-coupled mass spectrometry (LC–MS); settings: 2 µM
[2] = as §1, with “WLS-370” for “Z-003”, “human” for “pig”, “ERS12561793” for “ERS12561803”; settings: 2 µM
[3] = human gut metagenome, 24 h, 2 µM
[4] = as §1, with “Z-024” for “Z-003”, “ERS12561823” for “ERS12561803”; settings: 2 µM
[5] = as §1, with “Z-029” for “Z-003”, “rat” for “pig”, “ERS12561828” for “ERS12561803”; settings: 2 µM
[6] = human gut metagenome, 24 h, 2 µM; remark: listed apart in the source
[7] = as §1, with “WLS-039” for “Z-003”, “human” for “pig”, “ERS12561746” for “ERS12561803”; settings: 2 µM
[8] = as §1, with “WLS-073” for “Z-003”, “human” for “pig”, “ERS12561749” for “ERS12561803”; settings: 2 µM
[9] = human gut metagenome, 24 h, 2 µM; remark: listed apart in the source
[10] = as §1, with “Z-016” for “Z-003”, “mouse” for “pig”, “ERS12561815” for “ERS12561803”; settings: 2 µM
[11] = human gut metagenome, 24 h, 2 µM; remark: listed apart in the source
[12] = as §1, with “Z-017” for “Z-003”, “mouse” for “pig”, “ERS12561816” for “ERS12561803”; settings: 2 µM
[13] = human gut metagenome, 24 h, 2 µM; remark: listed apart in the source
[14] = as §1, with “WLS-090” for “Z-003”, “human” for “pig”, “ERS12561753” for “ERS12561803”; settings: 2 µM
[15] = human gut metagenome, 24 h, 2 µM; remark: listed apart in the source
[16] = human gut metagenome, 24 h, 2 µM; remark: listed apart in the source
[17] = human gut metagenome, 24 h, 2 µM; remark: listed apart in the source
[18] = as §1, with “Z-020” for “Z-003”, “rabbit” for “pig”, “ERS12561819” for “ERS12561803”; settings: 2 µM
[19] = as §1, with “Z-006” for “Z-003”, “mouse” for “pig”, “ERS12561806” for “ERS12561803”; settings: 2 µM
[20] = as §1, with “Z-005” for “Z-003”, “to” for “to pig gut”, “ERS12561805” for “ERS12561803”; settings: 2 µM
Note: call rule not given here.

| Structure (SMILES) | Bacterial Biotransformation [1] | Bacterial Biotransformation [2] | Bacterial Biotransformation [3] | Bacterial Biotransformation [4] | Bacterial Biotransformation [5] | Bacterial Biotransformation [6] | Bacterial Biotransformation [7] | Bacterial Biotransformation [8] | Bacterial Biotransformation [9] | Bacterial Biotransformation [10] | Bacterial Biotransformation [11] | Bacterial Biotransformation [12] | Bacterial Biotransformation [13] | Bacterial Biotransformation [14] | Bacterial Biotransformation [15] | Bacterial Biotransformation [16] | Bacterial Biotransformation [17] | Bacterial Biotransformation [18] | Bacterial Biotransformation [19] | Bacterial Biotransformation [20] |
| --- | --- | --- | --- | --- | --- | --- | --- | --- | --- | --- | --- | --- | --- | --- | --- | --- | --- | --- | --- | --- |
| CN1CCc2cccc3c2[C@H]1Cc1ccc(O)c(O)c1-3 [APOMORPHINE] | Compound metabolized | Compound NOT metabolized | Compound NOT metabolized | Compound metabolized | Compound NOT metabolized | Compound NOT metabolized | Compound NOT metabolized | Compound NOT metabolized | Compound NOT metabolized | Compound NOT metabolized | Compound NOT metabolized | Compound NOT metabolized | Compound NOT metabolized | Compound NOT metabolized | Compound NOT metabolized | Compound NOT metabolized | Compound NOT metabolized |  |  |  |
| COc1ccccc1N1CCN(CC(O)COc2cccc3ccccc23)CC1 (configuration not stated) [NAFTOPIDIL] | Compound NOT metabolized | Compound NOT metabolized | Compound NOT metabolized | Compound metabolized |  | Compound NOT metabolized | Compound NOT metabolized | Compound NOT metabolized | Compound NOT metabolized | Compound NOT metabolized | Compound NOT metabolized | Compound NOT metabolized | Compound NOT metabolized | Compound NOT metabolized | Compound NOT metabolized | Compound NOT metabolized | Compound NOT metabolized | Compound NOT metabolized | Compound NOT metabolized | Compound NOT metabolized |
| C#C[C@]1(O)CC[C@H]2[C@@H]3CCC4=Cc5oncc5C[C@]4(C)[C@H]3CC[C@@]21C [DANAZOL] | Compound metabolized |  |  | Compound metabolized | Compound NOT metabolized |  | Compound metabolized | Compound metabolized |  | Compound NOT metabolized | Compound NOT metabolized |  |  | Compound metabolized |  | Compound metabolized |  | Compound NOT metabolized | Compound metabolized |  |
| CN1C(=O)CC(C)(c2ccccc2)C1=O (configuration not stated) [METHSUXIMIDE] | Compound NOT metabolized | Compound NOT metabolized | Compound NOT metabolized | Compound metabolized |  | Compound NOT metabolized | Compound NOT metabolized | Compound NOT metabolized | Compound NOT metabolized | Compound NOT metabolized | Compound NOT metabolized | Compound NOT metabolized | Compound NOT metabolized | Compound NOT metabolized | Compound NOT metabolized | Compound NOT metabolized | Compound NOT metabolized | Compound NOT metabolized | Compound NOT metabolized | Compound NOT metabolized |
| CNC(=C[N+](=O)[O-])NCCSCc1csc(CN(C)C)n1 [NIZATIDINE] | Compound NOT metabolized | Compound NOT metabolized | Compound NOT metabolized | Compound NOT metabolized | Compound NOT metabolized | Compound metabolized | Compound NOT metabolized | Compound metabolized | Compound NOT metabolized | Compound NOT metabolized | Compound metabolized |  | Compound NOT metabolized | Compound NOT metabolized | Compound NOT metabolized | Compound metabolized | Compound metabolized | Compound NOT metabolized | Compound NOT metabolized | Compound NOT metabolized |
| Nc1ccc(/N=N/c2ccccc2)c(N)n1 [PHENAZOPYRIDINE] | Compound metabolized | Compound metabolized | Compound metabolized | Compound metabolized | Compound metabolized | Compound metabolized | Compound metabolized | Compound metabolized | Compound metabolized | Compound metabolized | Compound NOT metabolized | Compound metabolized | Compound metabolized | Compound metabolized | Compound metabolized | Compound metabolized | Compound metabolized |  | Compound metabolized | Compound metabolized |
| C[C@@H]1CC[C@H]2[C@@H](C)C(=O)O[C@@H]3O[C@@]4(C)CC[C@@H]1[C@]32OO4 [ARTEMISININ] |  | Compound metabolized | Compound metabolized | Compound metabolized | Compound metabolized | Compound metabolized | Compound metabolized | Compound metabolized | Compound metabolized | Compound metabolized | Compound metabolized |  | Compound metabolized | Compound metabolized |  |  | Compound metabolized | Compound metabolized | Compound NOT metabolized |  |
| COc1ccc2[nH]c([S+]([O-])Cc3ncc(C)c(OC)c3C)nc2n1 (configuration not stated) [TENATOPRAZOLE] | Compound metabolized | Compound metabolized | Compound metabolized | Compound NOT metabolized | Compound metabolized |  | Compound metabolized | Compound metabolized | Compound metabolized | Compound metabolized | Compound metabolized | Compound metabolized | Compound metabolized |  |  | Compound NOT metabolized | Compound metabolized | Compound NOT metabolized | Compound metabolized | Compound metabolized |
| Cc1nc2n(c(=O)c1CCN1CCC(c3noc4cc(F)ccc34)CC1)CCCC2 [RISPERIDONE] | Compound metabolized | Compound metabolized | Compound metabolized | Compound metabolized | Compound NOT metabolized | Compound metabolized | Compound metabolized |  | Compound metabolized | Compound metabolized | Compound metabolized | Compound metabolized | Compound metabolized | Compound metabolized | Compound metabolized | Compound metabolized | Compound metabolized | Compound metabolized | Compound metabolized | Compound metabolized |
| COc1c2occc2cc2ccc(=O)oc12 [METHOXSALEN] | Compound metabolized | Compound metabolized | Compound metabolized | Compound metabolized | Compound NOT metabolized | Compound metabolized | Compound metabolized |  | Compound metabolized | Compound metabolized | Compound metabolized | Compound metabolized | Compound metabolized | Compound metabolized |  |  | Compound metabolized | Compound metabolized | Compound metabolized | Compound metabolized |
